Experimental data taken from patent US4742045A, “Glycopeptide antibiotics” (SmithKline Beckman Corporation, priority 1986, dated 1988).
In brackets after ≈: the same amount, converted by molar mass. Like-named read-outs stand apart in the source and are kept apart here.

Key:
Staphylococcus aureus = assay: standard microtiter assay, minimum inhibitory concentration; type: cell-based; details: for MIC: Staphylococcus aureus, read-out: minimum inhibitory concentration
From the text: (§1) Representative results of standard microtiter assays are reported in Tables 1, 2 and 3 which follow, as the minimum inhibitory concentration of antibiotic (μg/ml).
(§2) In Table 1, test organisms 1-13 were different strains of Staphylococcus aureus, and 14-16 were different strains of Staphylococcus epidermidis. In Table 2, test organisms 1-5 were different strains of S. aureus; 6, 8, 12 and 14 were different strains of S. epidermidis; 7 was a Staphylococcus haemolyticus; 9 and 10 were different strains of Streptococcus faecalis; 11 was a Streptococcus pyogenes; and 13 was a Staphylococcus saprophyticus. In Table 3, test organisms 1-3 were different strains of S. aureus; 4 and 6 were different strains of S. epidermidis; 5 was a S. haemolyticus and 7 and 8 were different strains of Streptococcus faecalis. Except where individual components are indicated, the CWI-785 antibiotic employed was the CWI-785 complex; in some cases, HCl salts of the CWI-785 antibiotic were employed.
(§3) The number of strains tested is shown in parentheses below each organism. The average MIC is reported in μg/ml.
(§4) In Table 5 are shown data from standard microtiter assays carried out in a presence of no serum, 50% human serum (hum.) and 50% mouse serum (mse.). The test organisms were 1: S. aureus; 2,4 and 5: different strains of S. epidermidis; 3: S. haemolyticus; 6: S. saprophyticus; 7 and 8: different strains of S. faecalis.

Streptococcus faecalis = assay: as above; type: cell-based
From the text: as §1, §2, §3, §4

[1] = tested on: Staphylococcus epidermidis; assay: as above; type: cell-based
From the text: as §1, §2, §4

[2] = tested on: Staphylococcus haemolyticus; assay: as above; type: cell-based; details: Table 3 test organism 5, S. haemolyticus
From the text: as §1, §2, §4

STAPH. AUREUS HH 127 = assay: prophylactic activity, dosing preinfection; type: in vivo, mice; details: for survival printed in parentheses under ED 50: Table 8, printed with ED 50 <0.156
[3] = tested on: buffered rumen fluid from a donor steer; assay: 23 hour flask rumen fermentation, volatile fatty acid production
Description: The effects of each additive on 23 hour flask rumen fermentation were assayed. Each flask contained 10 ml of rumen fluid and 10 ml of nutrient broth comprising (mg/flask): casein hydrolysate: 20, maltose: 100, urea: 15, solka floc (cellulose): 400 and starch: 100. The flasks were incubated on a shaker at 39° C.
In Table A, ACE is acetate, PRO is propionate, IBU is isobutyrate, BUT is butyrate, IVA is isovalerate, VAL is valerate, TOTAL is total VFA and %PR is the amount of propionate relative to TOTAL. Amounts of each VFA are reported as percentages of control ruminant fluid, that is, without additive.

cecum fluid from a swine = assay: swine in vitro model, cecum fluid incubation
Description: The swine in vitro model was carried by incubating 1.5 ml of cecum fluid, from a swine fed normal rations, mixed with 1.5 ml of a nutrient broth (3 mg casein hydrolysate, 30 mg maltose, 1.25 mg urea, 0.5 mg lysine, and 30 mg cellobiose) and with up to 166.67 parts per million of a selected growth promotant at 39° C., with oscillation, for about 4-5 hours. Results, percentage of control, are reported in the following table in which all abbreviations are as above and LLAC means L-lactate, ETOH means ethanol and GLU means glucose.

[4] = Table 3 test organism 1, S. aureus strain
[5] = Table 3 test organism 2, S. aureus strain
[6] = Table 3 test organism 3, S. aureus strain
[7] = Table 3 test organism 7, Streptococcus faecalis strain
[8] = Table 3 test organism 8, Streptococcus faecalis strain
[9] = Table 3 test organism 4, S. epidermidis strain
[10] = Table 3 test organism 6, S. epidermidis strain
[11] = Table 7, vs Staph. aureus HH 127 (S.C.), read-out: ED50
[12] = Table 7: 40 mg/kg, 4 hr preinfection, S.C.
[13] = Table 8, vs Staph. aureus HH 127 (I.V.)
[14] = Table 8: 40 mg/kg (I.V.), 6 hr preinfection

CN[C@H](C(=O)NC1C(=O)NC(CCSC)C(=O)NC2C(=O)NC3C(=O)NC(C(=O)NC(C(=O)O)c4cc(O)cc(O)c4-c4cc3ccc4O)C(O)c3ccc(c(Cl)c3)Oc3cc2cc(c3O)Oc2ccc(cc2)C1O)c1ccc(O)cc1 (some centres unmarked) [CWI-785B"-aglycone]
minimum inhibitory concentration (Staphylococcus aureus; [4]): 25.0 µg/mL (≈ 21.5 µM)
minimum inhibitory concentration (Staphylococcus aureus; [5]): 25.0 µg/mL (≈ 21.5 µM)
minimum inhibitory concentration (Staphylococcus aureus; [6]): 25.0 µg/mL (≈ 21.5 µM)
minimum inhibitory concentration (Streptococcus faecalis; [7]): 3.1 µg/mL (≈ 2.67 µM)
minimum inhibitory concentration (Streptococcus faecalis; [8]): 1.6 µg/mL (≈ 1.38 µM)
minimum inhibitory concentration [1, 9]: 25.0 µg/mL (≈ 21.5 µM)
minimum inhibitory concentration [1, 10]: 25.0 µg/mL (≈ 21.5 µM)
minimum inhibitory concentration [2]: 50.0 µg/mL (≈ 43 µM)

CN[C@@H](C(=O)NC1C(=O)NC(CCSC)C(=O)NC2C(=O)NC3C(=O)NC(C(=O)NC(C(=O)O)c4cc(O)cc(O)c4-c4cc3ccc4O)C(O)c3ccc(c(Cl)c3)Oc3cc2cc(c3O)Oc2ccc(cc2)C1O)c1ccc(O)cc1 (some centres unmarked) [CWI-785B'-aglycone]
minimum inhibitory concentration (Staphylococcus aureus; [4]): 3.1 µg/mL (≈ 2.67 µM)
minimum inhibitory concentration (Staphylococcus aureus; [5]): 3.1 µg/mL (≈ 2.67 µM)
minimum inhibitory concentration (Staphylococcus aureus; [6]): 3.1 µg/mL (≈ 2.67 µM)
minimum inhibitory concentration (Streptococcus faecalis; [7]): 0.8 µg/mL (≈ 0.688 µM)
minimum inhibitory concentration (Streptococcus faecalis; [8]): 0.8 µg/mL (≈ 0.688 µM)
minimum inhibitory concentration [1, 9]: 3.1 µg/mL (≈ 2.67 µM)
minimum inhibitory concentration [1, 10]: 6.3 µg/mL (≈ 5.42 µM)
minimum inhibitory concentration [2]: 6.3 µg/mL (≈ 5.42 µM)

CNC(C(=O)NC1C(=O)NC(CC[S+](C)[O-])C(=O)NC2C(=O)NC3C(=O)NC(C(=O)NC(C(=O)O)c4cc(O)cc(O)c4-c4cc3ccc4O)C(OC3CC(N)C(O)C(C)O3)c3ccc(c(Cl)c3)Oc3cc2cc(c3O)Oc2ccc(cc2)C1O)c1ccc(O)cc1.Cl (centres unmarked) [HPB3 hydrochloride]
ED50 (STAPH. AUREUS HH 127; [11]): 1.25 mg/kg
PERCENT SURVIVAL (STAPH. AUREUS HH 127; [12]): 100%
survival printed in parentheses under ED 50 (STAPH. AUREUS HH 127): 90%
ED50 (STAPH. AUREUS HH 127; [13]): < 0.156 mg/kg
PERCENT SURVIVAL (STAPH. AUREUS HH 127; [14]): 60%

CNC(C(=O)NC1C(=O)NC(CCSC)C(=O)NC2C(=O)NC3C(=O)NC(C(=O)NC(C(=O)O)c4cc(O)cc(O)c4-c4cc3ccc4O)C(OC3CC(N)C(O)C(C)O3)c3ccc(c(Cl)c3)Oc3cc2cc(c3O)Oc2ccc(cc2)C1O)c1ccc(O)cc1.Cl (centres unmarked) [HPB4 hydrochloride]
ED50 (STAPH. AUREUS HH 127; [11]): 1.25 mg/kg
PERCENT SURVIVAL (STAPH. AUREUS HH 127; [12]): 100%
survival printed in parentheses under ED 50 (STAPH. AUREUS HH 127): 100%
ED50 (STAPH. AUREUS HH 127; [13]): < 0.156 mg/kg
PERCENT SURVIVAL (STAPH. AUREUS HH 127; [14]): 100%

COc1cccc(OC)c1C(=O)N[C@@H]1C(=O)N2[C@@H]1SC(C)(C)[C@@H]2C(=O)O [Methicillin]
MIC (Staphylococcus aureus; Table 1 test organism 1, S. aureus strain): 3.1 µg/mL (≈ 8.15 µM)
MIC (Staphylococcus aureus; Table 1 test organism 2, S. aureus strain): 12.5 µg/mL (≈ 32.9 µM)
MIC (Staphylococcus aureus; Table 1 test organism 3, S. aureus strain): 6.3 µg/mL (≈ 16.6 µM)
MIC (Staphylococcus aureus; Table 1 test organism 4, S. aureus strain): 12.5 µg/mL (≈ 32.9 µM)
MIC (Staphylococcus aureus; Table 1 test organism 5, S. aureus strain): 12.5 µg/mL (≈ 32.9 µM)
MIC (Staphylococcus aureus; Table 1 test organism 6, S. aureus strain): 12.5 µg/mL (≈ 32.9 µM)
MIC (Staphylococcus aureus; Table 1 test organism 7, S. aureus strain): > 50 µg/mL
MIC (Staphylococcus aureus; Table 1 test organism 8, S. aureus strain): > 50 µg/mL
MIC (Staphylococcus aureus; Table 1 test organism 9, S. aureus strain): > 50 µg/mL
MIC (Staphylococcus aureus; Table 1 test organism 10, S. aureus strain): > 50 µg/mL
MIC (Staphylococcus aureus; Table 1 test organism 11, S. aureus strain): > 50 µg/mL
MIC (Staphylococcus aureus; Table 1 test organism 12, S. aureus strain): 50 µg/mL (≈ 131 µM)
MIC (Staphylococcus aureus; Table 1 test organism 13, S. aureus strain): > 50 µg/mL
MIC ([1]; Staphylococcus epidermidis, Table 1 test organism 14, S. epidermidis strain, read-out: minimum inhibitory concentration): 1.6 µg/mL (≈ 4.21 µM)
minimum inhibitory concentration ([1]; Table 1 test organism 15, S. epidermidis strain): 1.6 µg/mL (≈ 4.21 µM)
minimum inhibitory concentration ([1]; Table 1 test organism 16, S. epidermidis strain): 1.6 µg/mL (≈ 4.21 µM)

CC[C@@]1([C@@H]2O[C@@H]([C@H]3O[C@@](O)(CO)[C@H](C)C[C@@H]3C)C[C@@H]2C)CC[C@H]([C@]2(C)CC[C@]3(C[C@H](O)[C@@H](C)[C@@H]([C@@H](C)[C@@H](OC)[C@H](C)C(=O)O)O3)O2)O1 [Monensin, monensin]
ACE (acetate) ([3]; 0.50 PPM): 108 percentages of control
BUT (butyrate) ([3]; 0.50 PPM): 100 percentages of control
IBU (isobutyrate) ([3]; 0.50 PPM): 101 percentages of control
IVA (isovalerate) ([3]; 0.50 PPM): 246 percentages of control
PRO (propionate) ([3]; 0.50 PPM): 96 percentages of control
TOTAL (total VFA) ([3]; 0.50 PPM): 105 percentages of control
VAL (valerate) ([3]; 0.50 PPM): 114 percentages of control
ACE (acetate) ([3]; 5.00 PPM): 96 percentages of control
BUT (butyrate) ([3]; 5.00 PPM): 60 percentages of control
IBU (isobutyrate) ([3]; 5.00 PPM): 77 percentages of control
IVA (isovalerate) ([3]; 5.00 PPM): 106 percentages of control
PRO (propionate) ([3]; 5.00 PPM): 174 percentages of control
TOTAL (total VFA) ([3]; 5.00 PPM): 103 percentages of control
VAL (valerate) ([3]; 5.00 PPM): 41 percentages of control
ACE (acetate) ([3]; 50.00 PPM): 91 percentages of control
BUT (butyrate) ([3]; 50.00 PPM): 53 percentages of control
IBU (isobutyrate) ([3]; 50.00 PPM): 104 percentages of control
IVA (isovalerate) ([3]; 50.00 PPM): 134 percentages of control
PRO (propionate) ([3]; 50.00 PPM): 211 percentages of control
VAL (valerate) ([3]; 50.00 PPM): 38 percentages of control

Virginiamycin
% PR (propionate relative to TOTAL) (cecum fluid from a swine; 1.67 PPM): 99% OF CONTROL
ACE (acetate) (cecum fluid from a swine; 1.67 PPM): 138% OF CONTROL
BUT (butyrate) (cecum fluid from a swine; 1.67 PPM): 178% OF CONTROL
ETOH (ethanol) (cecum fluid from a swine; 1.67 PPM): 309% OF CONTROL
GLU (glucose) (cecum fluid from a swine; 1.67 PPM): 152% OF CONTROL
IBU (isobutyrate) (cecum fluid from a swine; 1.67 PPM): 0% OF CONTROL
IVA (isovalerate) (cecum fluid from a swine; 1.67 PPM): 251% OF CONTROL
LLAC (L-lactate) (cecum fluid from a swine; 1.67 PPM): 17% OF CONTROL
PRO (propionate) (cecum fluid from a swine; 1.67 PPM): 147% OF CONTROL
TOTAL (total VFA) (cecum fluid from a swine; 1.67 PPM): 148% OF CONTROL
VAL (valerate) (cecum fluid from a swine; 1.67 PPM): 262% OF CONTROL
% PR (propionate relative to TOTAL) (cecum fluid from a swine; 16.67 PPM): 81% OF CONTROL
ACE (acetate) (cecum fluid from a swine; 16.67 PPM): 58% OF CONTROL
BUT (butyrate) (cecum fluid from a swine; 16.67 PPM): 95% OF CONTROL
ETOH (ethanol) (cecum fluid from a swine; 16.67 PPM): 273% OF CONTROL
GLU (glucose) (cecum fluid from a swine; 16.67 PPM): 151% OF CONTROL
IBU (isobutyrate) (cecum fluid from a swine; 16.67 PPM): 0% OF CONTROL
IVA (isovalerate) (cecum fluid from a swine; 16.67 PPM): 40% OF CONTROL
LLAC (L-lactate) (cecum fluid from a swine; 16.67 PPM): 32% OF CONTROL
PRO (propionate) (cecum fluid from a swine; 16.67 PPM): 42% OF CONTROL
TOTAL (total VFA) (cecum fluid from a swine; 16.67 PPM): 52% OF CONTROL
VAL (valerate) (cecum fluid from a swine; 16.67 PPM): 113% OF CONTROL
% PR (propionate relative to TOTAL) (cecum fluid from a swine; 166.67 PPM): 59% OF CONTROL
ACE (acetate) (cecum fluid from a swine; 166.67 PPM): 45% OF CONTROL
BUT (butyrate) (cecum fluid from a swine; 166.67 PPM): 83% OF CONTROL
ETOH (ethanol) (cecum fluid from a swine; 166.67 PPM): 0% OF CONTROL
GLU (glucose) (cecum fluid from a swine; 166.67 PPM): 151% OF CONTROL
IBU (isobutyrate) (cecum fluid from a swine; 166.67 PPM): 0% OF CONTROL
IVA (isovalerate) (cecum fluid from a swine; 166.67 PPM): 56% OF CONTROL
LLAC (L-lactate) (cecum fluid from a swine; 166.67 PPM): 39% OF CONTROL
PRO (propionate) (cecum fluid from a swine; 166.67 PPM): 20% OF CONTROL
TOTAL (total VFA) (cecum fluid from a swine; 166.67 PPM): 34% OF CONTROL
VAL (valerate) (cecum fluid from a swine; 166.67 PPM): 84% OF CONTROL
